According to article PMC6301270 (MedChemComm, 2018):

Test system: T.b. brucei (strain 427) bloodstream form parasites
Experiment: T.b. brucei single concentration screen (10 μM)
Details: Trypanosoma brucei, read-out: T.b.brucei % viability (10 µM)

SMILES | viability at 10 µM [%]
CCCCc1ccc(NC(=O)Nc2ccc(O[C@H]3CCCC[C@@H]3N(C)c3ccccc3)c(F)c2)cc1 [MMV676063, CCCCc1ccc(NC(=O)Nc2ccc(O[C@H]3CCCC[C@@H]3N(C)c4ccccc4)c(F)c2)cc1] | 91
CC(=O)N(CCN(C(=O)c1ccc(F)cc1)c1ccccc1)c1ccccc1 [MMV676064, CC(=O)N(CCN(C(=O)c1ccc(F)cc1)c2ccccc2)c3ccccc3] | 100
Clc1cccc(CO[C@H]2CCc3ccccc3[C@@H]2n2ccnn2)c1 [MMV676159, Clc1cccc(CO[C@H]2CCc3ccccc3[C@@H]2n4ccnn4)c1] | 96
c1ccc(Oc2ccc(-c3cc(CN4CCOCC4)[nH]n3)cc2)cc1 [MMV676161, C(N1CCOCC1)c2cc(n[nH]2)c3ccc(Oc4ccccc4)cc3] | 43
O=C(Nc1ccccc1-c1nc2c(C(=O)O)cccc2o1)c1ccccc1 [MMV676162, OC(=O)c1cccc2oc(nc12)c3ccccc3NC(=O)c4ccccc4] | 101
Nc1ncnc2c1c(Cc1cccc3ccccc13)nn2CC1CCNCC1 [MMV676182, Nc1ncnc2c1c(Cc3cccc4ccccc34)nn2CC5CCNCC5] | 98
COC(=O)c1cccc2oc(-c3cccc(OC)c3NC(=O)c3cc(-c4ccccc4)on3)nc12 [MMV676186, COC(=O)c1cccc2oc(nc12)c3cccc(OC)c3NC(=O)c4cc(on4)c5ccccc5] | 90
CC(C)C(Oc1cccc2ccccc12)C(=O)O (stereo not shown) [MMV676191, CC(C)C(Oc1cccc2ccccc12)C(=O)O] | 103
O=C(c1ccc(F)cc1)N(CCNc1ccccc1)c1ccccc1 [MMV676204, Fc1ccc(cc1)C(=O)N(CCNc2ccccc2)c3ccccc3] | 97
CN1CCN(c2nccc3nc(-c4ccc(F)c(F)c4)[nH]c23)CC1 [MMV676260, CN1CCN(CC1)c2nccc3nc([nH]c23)c4ccc(F)c(F)c4] | 49
C[C@H](C(N)=O)N1CCCC[C@H]1c1ccc(OCc2cccc(F)c2)cc1 [MMV676269, C[C@@H](N1CCCC[C@H]1c2ccc(OCc3cccc(F)c3)cc2)C(=O)N] | 92
C[C@H](C(N)=O)N1CCCC[C@@H]1c1ccc(OCc2cccc(F)c2)cc1 [MMV676270, C[C@@H](N1CCCC[C@@H]1c2ccc(OCc3cccc(F)c3)cc2)C(=O)N] | 97
Cc1cnc(CCNC(=O)c2cc(-c3ccc(Cl)cc3)cs2)[nH]1 [MMV676350, Cc1cnc(CCNC(=O)c2cc(cs2)c3ccc(Cl)cc3)[nH]1] | 47
Nc1ncc(Br)cc1-c1nc2cc(Cl)cnc2[nH]1 [MMV676358, Nc1ncc(Br)cc1c2nc3cc(Cl)cnc3[nH]2] | 98
Brc1c(-c2ccc3c(c2)OCO3)nc2ncccn12 [MMV676377, Brc1c(nc2ncccn12)c3ccc4OCOc4c3] | 96
COc1cccc(OCC(=O)c2ccc(Br)cc2)c1 [MMV676379, COc1cccc(OCC(=O)c2ccc(Br)cc2)c1] | 104
CC(=O)Nc1ccc(NC(=O)c2cc(-c3cc(Cl)ccc3O)[nH]n2)cc1 [MMV676380, CC(=O)Nc1ccc(NC(=O)c2cc([nH]n2)c3cc(Cl)ccc3O)cc1] | 78
Cn1ncc2c(N3CCOCC3)nc(NCCc3c[nH]c4ccccc34)nc21 [MMV676382, Cn1ncc2c(nc(NCCc3c[nH]c4ccccc34)nc12)N1CCOCC1] | 93
CCC(Sc1nc2ccccc2o1)C(=O)Nc1nccs1 (stereo not shown) [MMV676383, CCC(Sc1oc2ccccc2n1)C(=O)Nc3nccs3] | 86
N#Cc1nc(-c2ccccc2F)oc1NCCc1ccccc1 [MMV676384, Fc1ccccc1c2oc(NCCc3ccccc3)c(n2)C#N] | 107

SMILES | viability at 10 µM [%]
Cc1cccc(Cn2ccc(NC(=O)c3ccc4c(c3)OCO4)n2)c1 [MMV676386, Cc1cccc(Cn2ccc(NC(=O)c3ccc4OCOc4c3)n2)c1] | 95
COc1cccc(-n2nnnc2S(=O)(=O)Cc2ccccc2)c1 [MMV676388, COc1cccc(c1)n2nnnc2S(=O)(=O)Cc3ccccc3] | 87
O=C(c1[nH]nc2c1CCCC2)N1CCN(Cc2ccc3c(c2)OCO3)CC1 [MMV676389, O=C(N1CCN(Cc2ccc3OCOc3c2)CC1)c4[nH]nc5CCCCc45] | 95
O=C(Nc1cccnc1)c1c(O)c2cccc3c2n(c1=O)CC3 [MMV676395, OC1=C(C(=O)Nc2cccnc2)C(=O)N3CCc4cccc1c34] | 106
CCS(=O)(=O)N(Cc1ccco1)Cc1cc2ccc(C)cc2nc1O [MMV676398, CCS(=O)(=O)N(Cc1occc1)Cc2cc3ccc(C)cc3nc2O] | 86
c1coc(CNc2nc(N3CCCCC3)nc3ccccc23)c1 [MMV676401, C(Nc1nc(nc2ccccc12)N3CCCCC3)c4occc4] | 58
CC(C)n1ncc2c(C(=O)NCC(c3cccs3)N3CCOCC3)cc(-c3ccccc3)nc21 (stereo not shown) [MMV676406, CC(C)n1ncc2c(cc(nc12)c3ccccc3)C(=O)NCC(N4CCOCC4)c5cccs5] | 61
N#Cc1nc(-c2ccccc2)oc1S(=O)(=O)c1ccc(Cl)cc1 [MMV676412, Clc1ccc(cc1)S(=O)(=O)c2oc(nc2C#N)c3ccccc3] | 28
Cc1ccc(NC(=O)CC2COc3ccccc3O2)cc1Cl (stereo not shown) [MMV676431, Cc1ccc(NC(=O)CC2COc3ccccc3O2)cc1Cl] | 77
Cc1ccc2nc(Cl)c(CNCc3cccs3)cc2c1 [MMV676439, Cc1ccc2nc(Cl)c(CNCc3cccs3)cc2c1] | 99
CC(C)c1ncc(-c2ccncc2)c([C@H]2CC[C@H](CNC(=O)c3cccnc3)CC2)n1 [MMV676442, CC(C)c1ncc(c2ccncc2)c(n1)[C@@H]3CC[C@@H](CNC(=O)c4cccnc4)CC3] | 103
O=C(NC1CCCCC1)N1CCN(Cc2ccc3c(c2)OCO3)CC1 [MMV676444, O=C(NC1CCCCC1)N2CCN(Cc3ccc4OCOc4c3)CC2] | 109
CCCn1c(CNc2ccccc2O)nc2ccccc21 [MMV676445, CCCn1c(CNc2ccccc2O)nc3ccccc13] | 109
CCc1nc2ccccc2n1CC(O)COc1cc(C)ccc1Cl (stereo not shown) [MMV676449, CCc1nc2ccccc2n1CC(O)COc3cc(C)ccc3Cl] | 83
CCOC(=O)c1cc(-c2csc(Nc3c(C)cc(C)cc3C)n2)on1 [MMV676461, CCOC(=O)c1cc(on1)c2csc(Nc3c(C)cc(C)cc3C)n2] | 102
CCOc1ccc(OCC(=O)Nc2cc(C)cc(C)c2)cc1 [MMV676470, CCOc1ccc(OCC(=O)Nc2cc(C)cc(C)c2)cc1] | 75
COc1cccc(OC)c1C(=O)Nc1ccc(Cl)c(-c2nc3ccccc3s2)c1 [MMV676472, COc1cccc(OC)c1C(=O)Nc2ccc(Cl)c(c2)c3nc4ccccc4s3] | 100
COc1ccccc1OCCCCn1c(C2CC2)nc2ccccc21 [MMV676474, COc1ccccc1OCCCCn2c(nc3ccccc23)C4CC4] | 93
Cc1cc(C)cc(COc2ccc3c(C)c(CCC(=O)O)c(=O)oc3c2C)c1 [MMV676476, CC1=C(CCC(=O)O)C(=O)Oc2c(C)c(OCc3cc(C)cc(C)c3)ccc12] | 94
COC(=O)c1c(NC(=O)c2cc3ccccc3oc2=O)sc2c1CCN(Cc1ccccc1)C2 [MMV676480, COC(=O)c1c2CCN(Cc3ccccc3)Cc2sc1NC(=O)C4=Cc5ccccc5OC4=O] | 101

SMILES | viability at 10 µM [%]
O=C(Nc1nnc(S)s1)c1cc(Br)ccc1Cl [MMV676492, Sc1nnc(NC(=O)c2cc(Br)ccc2Cl)s1] | 106
O=C(Nc1nnc(-c2ccc(Cl)s2)o1)c1ccc(Cl)s1 [MMV676501, Clc1ccc(s1)C(=O)Nc2oc(nn2)c3ccc(Cl)s3] | 93
Cc1ccc2oc(-c3cc(NC(=O)Cc4ccccc4)ccc3Cl)nc2c1 [MMV676509, Cc1ccc2oc(nc2c1)c3cc(NC(=O)Cc4ccccc4)ccc3Cl] | 99
O=C(c1cc2ccccc2o1)N1CCN(Cc2ccc3c(c2)OCO3)CC1 [MMV676520, O=C(N1CCN(Cc2ccc3OCOc3c2)CC1)c4oc5ccccc5c4] | 97
Nc1cccnc1Nc1ccc(Cl)cc1 [MMV676524, Nc1cccnc1Nc2ccc(Cl)cc2] | 110
COc1ccc(-c2cc(NC(=O)c3ccc(F)cc3Cl)ccc2OC)cc1 [MMV676526, COc1ccc(cc1)c2cc(NC(=O)c3ccc(F)cc3Cl)ccc2OC] | 93
Cc1cccc(NC(=O)c2cc(S(=O)(=O)N(C)c3ccc(F)cc3)ccc2Cl)n1 [MMV676528, CN(c1ccc(F)cc1)S(=O)(=O)c2ccc(Cl)c(c2)C(=O)Nc3cccc(C)n3] | 96
COCC(C)NC(=O)CSc1ncnc2sc(-c3ccccc3)cc12 (stereo not shown) [MMV676536, COCC(C)NC(=O)CSc1ncnc2sc(cc12)-c1ccccc1] | 97
O=C(NCCc1c[nH]c2ccccc12)c1cc2ccccc2oc1=O [MMV676539, O=C(NCCc1c[nH]c2ccccc12)C3=Cc4ccccc4OC3=O] | 83
COc1ccc(Nc2ccccc2NC(=O)c2ccc(O)nc2)cc1 [MMV676554, COc1ccc(Nc2ccccc2NC(=O)c3ccc(O)nc3)cc1] | 115
Cc1nnc(NCc2cccc(Cl)c2)c2ccccc12 [MMV676555, Cc1nnc(NCc2cccc(Cl)c2)c3ccccc13] | 97
CC1=NN(c2nc3ccccc3s2)C(=O)C1Cc1cccc2ccccc12 (stereo not shown) [MMV676558, CC1=NN(C(=O)C1Cc2cccc3ccccc23)c4nc5ccccc5s4] | 45
COc1ccc(-c2nc(-c3cccc(NC(=O)Cc4ccc(F)cc4)c3)no2)cc1OC [MMV676571, COc1ccc(cc1OC)c2onc(n2)c3cccc(NC(=O)Cc4ccc(F)cc4)c3] | 53
O=C(NC1=NCCS1)c1sc2cc(F)ccc2c1Cl [MMV676584, Fc1ccc2c(Cl)c(sc2c1)C(=O)NC3=NCCS3] | 82
Nc1c2c(nc3sc4c(c13)CCCC4)CCCC2 [MMV676588, Nc1c2CCCCc2nc3sc4CCCCc4c13] | 99
O=C(CCC1CCCCC1)Nc1cccc(-c2nnc(-c3ccco3)o2)c1 [MMV676589, O=C(CCC1CCCCC1)Nc2cccc(c2)c3oc(nn3)c4occc4] | 95
CCCn1nnc(NC(=O)COc2ccc(C3CCCCC3)cc2)n1 [MMV676597, CCCn1nnc(NC(=O)COc2ccc(cc2)C3CCCCC3)n1] | 71
CC(C)(C)n1nc(Cc2cccc3ccccc23)c2c(N)ncnc21 [MMV676599, CC(C)(C)n1nc(Cc2cccc3ccccc23)c4c(N)ncnc14] | 87
